Measured values published in article PMC8126888 (RSC Medicinal Chemistry, 2020).
Like-named read-outs stand apart in the source and are kept apart here.

Key:
in vitro [1] = details: human, microsomes
in vitro [2] = details: human, HFF-1 cells
in vitro [3] = details: PAMPA
physchem = details: HPLC, Ascentis Express RP Amide column
in vitro [4] = details: human; for CC50 at 120 h: THP-1 cells differentiated with PMA; for IC50 at 120 h: PMA-differentiated THP-1 cells
[5] = system: Leishmania infantum MHOM/MA(BE)/67/ITMAP263 intracellular amastigotes; test: microbe, parasite or virus in culture; details: Macrophage, in Mus musculus
[6] = system: primary peritoneal mouse macrophages (PMM); test: cells; details: Macrophage
in vitro [7] = details: human
in vitro [8] = details: human, HepG2 cells
in vitro [9] = details: mouse, microsomes; for microsomal CLint at 0.5 μM: pH 7.4, MLM CLint (uL/min/mg), mouse liver microsomes; for microsomal CLint at 0.5 h, 0.5 µM: intrinsic in vitro clearance, liver microsomes
[10] = system: Leishmania infantum (MHOM/MA/67/ITMAP-263) intracellular amastigotes in THP-1; test: microbe, parasite or virus in culture
[11] = system: Trypanosoma cruzi, Tulahuen CL2, beta-galactosidase strain; test: microbe, parasite or virus in culture; details: MRC5, read-out: T. cruzi Tulahuen C4 (LacZ) IC50 (uM)
[12] = system: Leishmania infantum MHOM/MA(BE)/67/ITMAP263 intracellular amastigotes; details: for potency against L. inf. in words: intracellular amastigotes in PMM
[13] = pH 7.4, HLM CLint (uL/min/mg), human liver microsomes
[14] = read-out: L. Inf. pIC50, from L. infantum intracellular amastigote IC50 (converted)
[15] = read-out: L. infantum MHOM/MA(BE)/67/ITMAP263 intracellular amastigotes IC50 (uM), intracellular amastigotes
[16] = THP-1, read-out: L. infantum MHOM/MA/67/ITMAP263 intracellular amastigotes THP-1 cells IC50 (uM)
[17] = pH 7.4, Microsome Clint,u Human, Table 2, intrinsic in vitro clearance, liver microsomes
[18] = read-out: L. inf. pIC50, intracellular amastigotes in PMM (converted), geometric mean of a minimum of two experiments ± standard error
[19] = read-out: PMM pIC50 (converted)
[20] = pH 7.4, Microsome Clint,u Mouse, Table 2
[21] = THP-1, 120 h, read-out: Intracellular activity pIC50 L. inf. in THP-1 (converted)
[22] = pH 7.4, elog D, HPLC measured log D, pH 7.4
[23] = pH 7.4, Microsome Clint Human, intrinsic in vitro clearance, liver microsomes
[24] = reference drug in the intracellular Leishmania amastigote assay

Row | SMILES | microsomal CLint at 0.5 μM (in vitro [1]; [13]) | CC50 (in vitro [2]) | Papp (in vitro [3]) | chromatographic logD (physchem; pH 7.4, eLogD, experimental) | CC50 at 120 h (in vitro [4]) | IC50 [5, 14] | IC50 [5, 15] | IC50 ([6]; read-out: PMM IC50 (uM)) | CC50 at 3 days (in vitro [7]) | CC50 (in vitro [8]) | microsomal CLint at 0.5 μM (in vitro [9]) | IC50 [10, 16] | IC50 [11] | IC50 [5, 18] | IC50 [10, 21] | other results
1 | NS(=O)(=O)c1cc2c(cc1Cl)NCN(Cc1ccccc1)S2(=O)=O [DNDI0003392143] | 21 µL/min/mg | > 64 µM | 2.83 ×10⁻⁶ cm/s | 2.3 | > 64 µM | 57.5 µM | 57 µM | > 64 µM | > 64 µM | > 64 µM | 164 µL/min/mg | > 64 µM | 27.2 µM |  |  | 
2 | COc1ccc(C(=O)N2CCOCC2)cc1S(=O)(=O)N(Cc1ccc(C(F)(F)F)nc1)CC(C)(C)C [Compound 48] |  |  |  |  |  |  |  |  |  |  |  |  |  | 45.7 µM | > 64.6 µM | microsomal CLint at 0.5 h, 0.5 µM (in vitro [1]; [17]): 143 µL/min/mg; IC50 at 120 h (in vitro [4]): > 64.6 µM; IC50 [6, 19]: > 64.6 µM; microsomal CLint at 0.5 h, 0.5 µM (in vitro [9]; [20]): 379 µL/min/mg; potency against L. inf. in words [12]: inactive
3 | COc1ccc(Cl)cc1S(=O)(=O)N(Cc1ccccc1)C1COC(=O)OC1 [DNDI0003392146] | 21 µL/min/mg | 54.8 µM | 13.2 ×10⁻⁶ cm/s | 3.5 | > 64 µM | 17 µM | 16.9 µM | > 64 µM | 59.1 µM | > 64 µM | 118 µL/min/mg | > 64 µM | 17 µM |  |  | 
4 | CCCCC1Nc2cc(Cl)c(S(N)(=O)=O)cc2S(=O)(=O)N1Cc1ccccc1 (centres unmarked) [DNDI0003392147] | 22 µL/min/mg | > 64 µM | 1.39 ×10⁻⁶ cm/s | 4 | 12 µM | 7.24 µM | 7.3 µM | > 64 µM | > 64 µM | > 64 µM | 147 µL/min/mg | 23.4 µM | > 64 µM |  |  | 
5 | COc1ccc(C#N)cc1S(=O)(=O)N(Cc1ccccc1)Cc1cnc(C(F)(F)F)nc1 [DNDI0003425527] | 80 µL/min/mg | > 64 µM | 29.4 ×10⁻⁶ cm/s |  | > 64 µM | 3.89 µM | 3.9 µM | > 64 µM | > 64 µM | > 64 µM | 100 µL/min/mg | 61.1 µM | 28.4 µM |  |  | 
6 | COc1ccc(C(=O)N2CCOCC2)cc1S(=O)(=O)N(Cc1ccccc1)CC(C)(C)C [DNDI0003407876] | 1140 µL/min/mg | > 64 µM | 21.7 ×10⁻⁶ cm/s |  | > 64 µM | 1 µM | 1 µM | > 64 µM | > 64 µM | > 64 µM | 858 µL/min/mg | 27.5 µM | 16.7 µM |  |  | 
7 | Nc1cc(Cl)c(S(N)(=O)=O)cc1S(=O)(=O)N(Cc1ccccc1)Cc1ccccc1 [DNDI0003392145] | 253 µL/min/mg | > 64 µM | 3.37 ×10⁻⁶ cm/s | 3.4 | 60.6 µM | 35.5 µM | 35.3 µM | 50.8 µM | 43.4 µM | > 64 µM |  | 31.2 µM | 17.7 µM |  |  | 
8 | COc1ccc(S(C)(=O)=O)cc1S(=O)(=O)N(Cc1ccccc1)CC(C)(C)C [DNDI0003425524] | 1050 µL/min/mg | 57.2 µM | 14.1 ×10⁻⁶ cm/s | 3.6 | > 64 µM | 2.69 µM | 2.69 µM | > 64 µM | > 64 µM | > 64 µM | 1100 µL/min/mg | 47.7 µM | 28.7 µM |  |  | 
9 | COc1ccc(C(=O)N2CCOCC2)cc1S(=O)(=O)N(Cc1ccc(C(F)(F)F)nc1)CC(C)(C)C [DNDI0003407906] | 127 µL/min/mg | > 64 µM | 15.7 ×10⁻⁶ cm/s |  | > 64 µM | 45.7 µM | 45.2 µM | > 64 µM | > 64 µM | > 64 µM | 262 µL/min/mg | > 64 µM | 35.6 µM |  |  | 
10 | COc1ccc(S(C)(=O)=O)cc1S(=O)(=O)N(Cc1ccccc1)Cc1cc(C(F)(F)F)nn1C [DNDI0003578374] | 60 µL/min/mg | > 64 µM | 7.6 ×10⁻⁶ cm/s | 3.5 | > 64 µM | 13.2 µM | 13.1 µM | > 64 µM | > 64 µM | > 64 µM | 182 µL/min/mg | > 64 µM | > 64 µM |  |  | 
11 | COCCN(Cc1ccccc1)S(=O)(=O)c1ccccc1OC(F)(F)F [DNDI0003392130] | 194 µL/min/mg | 45.1 µM | 5.26 ×10⁻⁶ cm/s | 3.8 | > 64 µM | 8.32 µM | 8.27 µM | > 64 µM | > 64 µM | > 64 µM | 222 µL/min/mg | 31.2 µM | 17.8 µM |  |  | 
12 | COc1ccc(C#N)cc1S(=O)(=O)N(Cc1ccccc1)Cc1cnc(C(F)(F)F)nc1 [Compound 49] |  |  |  |  |  |  |  |  |  |  |  |  |  | 3.89 µM | 61.7 µM | microsomal CLint at 0.5 μM (in vitro [1]; [17]): 100 µL/min/mg; chromatographic logD (physchem; [22]): 3.8; IC50 at 120 h (in vitro [4]): > 64.6 µM; IC50 [6, 19]: > 64.6 µM
13 | COCCOCN(Cc1ccccc1)S(=O)(=O)c1cc(OC)ccc1OC [DNDI0003425514] |  | > 64 µM | 12.8 ×10⁻⁶ cm/s | 3.4 | > 64 µM | 6.17 µM | 6.11 µM | > 64 µM | > 64 µM | > 64 µM |  | > 64 µM | > 64 µM |  |  | 
14 | COCCOCN1CNc2cc(OC)c(S(=O)(=O)N(Cc3ccccc3)Cc3ccccc3)cc2S1(=O)=O [DNDI0003425511] | 460 µL/min/mg | > 64 µM | 0.92 ×10⁻⁶ cm/s |  | 40.2 µM | 0.661 µM | 0.65 µM | > 64 µM | > 64 µM | 52 µM | 976 µL/min/mg | 14.8 µM | 61.7 µM |  |  | 
15 | COCCOCN1CNc2cc(OC)c(S(=O)(=O)N(Cc3ccccc3)Cc3ccccc3)cc2S1(=O)=O [Compound 29] |  |  |  |  |  |  |  |  |  |  |  |  |  | 0.661 µM | 14.8 µM | microsomal CLint at 0.5 h, 0.5 µM (in vitro [1]; [23]): 518 µL/min/mg; chromatographic logD (physchem; [22]): 4; IC50 at 120 h (in vitro [4]): 39.8 µM; IC50 [6, 19]: > 64.6 µM; microsomal CLint at 0.5 h, 0.5 µM (in vitro [9]; pH 7.4, Microsome Clint Mouse): 1370 µL/min/mg; potency against L. inf. in words [12]: sub-micromolar potency
16 | COc1ccc(S(C)(=O)=O)cc1S(=O)(=O)N(Cc1ccc(F)cc1)Cc1ccc(F)cc1 [Compound 26] |  |  |  |  |  |  |  |  |  |  |  |  |  | 1.29 µM | 5.89 µM | microsomal CLint at 0.5 μM (in vitro [1]; [23]): 296 µL/min/mg; chromatographic logD (physchem; [22]): 3.9; IC50 at 120 h (in vitro [4]): > 64.6 µM; IC50 [6, 19]: > 64.6 µM
17 | C[C@@H]1[C@H](O)[C@@H](C)/C=C/C=C/C=C/C=C/C=C/C=C/C=C/[C@H](O[C@@H]2O[C@H](C)[C@@H](O)[C@H](N)[C@@H]2O)C[C@@H]2O[C@](O)(C[C@@H](O)C[C@@H](O)[C@H](O)CC[C@@H](O)C[C@@H](O)CC(=O)O[C@H]1C)C[C@H](O)[C@H]2C(=O)O [Amphotericin B, reference compound] |  |  |  |  |  |  |  |  |  |  |  |  |  |  | 1.95 µM | 
18 | COc1ccc(C(=O)N2CCOCC2)cc1S(=O)(=O)N(Cc1ccccc1)CC(C)(C)C [Compound 45] |  |  |  |  |  |  |  |  |  |  |  |  |  | 1 µM | 27.5 µM | microsomal CLint at 0.5 h, 0.5 µM (in vitro [1]; [17]): 1600 µL/min/mg; chromatographic logD (physchem; [22]): 3.8; IC50 at 120 h (in vitro [4]): > 64.6 µM; IC50 [6, 19]: > 64.6 µM; microsomal CLint at 0.5 h, 0.5 µM (in vitro [9]; [20]): 2580 µL/min/mg
19 | CCCCCCCCCCCCCCCCOP(=O)([O-])OCC[N+](C)(C)C [Miltefosine, reference compound] |  |  |  |  |  |  |  |  |  |  |  |  |  | 8.71 µM | 1.95 µM | IC50 [5, 24]: 5 to 10 µM; IC50 [12, 24]: ~5 µM
20 | O=S1(=O)NCNc2cc(Cl)c(S(=O)(=O)N(Cc3ccccc3)Cc3ccccc3)cc21 [DNDI0003425512] | 63 µL/min/mg | 29.5 µM | 0.04 ×10⁻⁶ cm/s | 4.2 | 52.4 µM | 1.29 µM | 1.28 µM | 32 µM | 25 µM | > 64 µM |  | 24.9 µM | 9.14 µM |  |  | 
